ChEMBL document CHEMBL3352541, “1-Phenylsulfinyl-3-(pyridin-3-yl)naphthalen-2-ols: a new class of potent and selective aldosterone synthase inhibitors” (Eur J Med Chem, 2015)

Columns and labels:
CYP17 = molecular target: T1, CYP17 (Homo sapiens, UniProt P05093); experiment: Inhibition of human recombinant CYP17 expressed in Escherichia coli using progesterone as substrate at 2 uM; conditions: probe progesterone
T1 sequence (P05093 whole entry): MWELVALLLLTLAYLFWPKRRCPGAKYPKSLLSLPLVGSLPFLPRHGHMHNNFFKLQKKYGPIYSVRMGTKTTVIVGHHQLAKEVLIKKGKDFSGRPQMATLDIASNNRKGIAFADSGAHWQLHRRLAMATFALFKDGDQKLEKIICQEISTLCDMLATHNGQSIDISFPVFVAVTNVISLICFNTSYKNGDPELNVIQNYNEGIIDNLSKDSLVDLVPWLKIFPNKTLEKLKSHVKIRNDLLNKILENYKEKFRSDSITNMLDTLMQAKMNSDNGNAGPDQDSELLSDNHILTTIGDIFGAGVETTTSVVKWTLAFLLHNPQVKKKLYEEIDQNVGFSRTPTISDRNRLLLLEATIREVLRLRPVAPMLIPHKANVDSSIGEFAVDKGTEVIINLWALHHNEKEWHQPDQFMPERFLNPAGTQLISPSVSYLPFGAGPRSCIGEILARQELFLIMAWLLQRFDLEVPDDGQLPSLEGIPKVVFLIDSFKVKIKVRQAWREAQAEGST

V79MZ = experiment: Selectivity ratio of IC50 for human CYP11B1 expressed in hamster V79MZ cells to IC50 for human CYP11B2 expressed in hamster V79MZ cells; assay type: cell-based
[1] = molecular target: T2, Cytochrome P450 11B2, mitochondrial (Homo sapiens, UniProt P19099)
T2 sequence (P19099 whole entry): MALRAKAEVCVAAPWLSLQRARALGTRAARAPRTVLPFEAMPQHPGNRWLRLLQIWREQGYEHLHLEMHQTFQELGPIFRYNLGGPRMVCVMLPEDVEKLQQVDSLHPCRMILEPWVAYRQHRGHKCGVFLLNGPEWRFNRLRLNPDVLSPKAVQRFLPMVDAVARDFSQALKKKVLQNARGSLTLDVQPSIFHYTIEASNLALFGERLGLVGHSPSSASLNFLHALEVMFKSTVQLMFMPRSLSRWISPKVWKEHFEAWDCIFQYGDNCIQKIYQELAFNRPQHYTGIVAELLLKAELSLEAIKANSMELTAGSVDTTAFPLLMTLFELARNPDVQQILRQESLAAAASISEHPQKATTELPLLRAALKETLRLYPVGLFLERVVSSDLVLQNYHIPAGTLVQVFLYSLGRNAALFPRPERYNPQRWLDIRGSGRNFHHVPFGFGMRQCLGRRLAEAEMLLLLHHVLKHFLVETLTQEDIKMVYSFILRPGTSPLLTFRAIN
Description: Inhibition of human CYP11B2 expressed in hamster V79MZ cells using [3H]-11-deoxycorticosterone as substrate after 1 hr by HPLC analysis

[2] = molecular target: T2, Cytochrome P450 11B2, mitochondrial; assay type: cell-based; conditions: V79MZ, 1 h
[3] = molecular target: T3, Cytochrome P450 11B1, mitochondrial (Homo sapiens, UniProt P15538)
T3 sequence (P15538 whole entry): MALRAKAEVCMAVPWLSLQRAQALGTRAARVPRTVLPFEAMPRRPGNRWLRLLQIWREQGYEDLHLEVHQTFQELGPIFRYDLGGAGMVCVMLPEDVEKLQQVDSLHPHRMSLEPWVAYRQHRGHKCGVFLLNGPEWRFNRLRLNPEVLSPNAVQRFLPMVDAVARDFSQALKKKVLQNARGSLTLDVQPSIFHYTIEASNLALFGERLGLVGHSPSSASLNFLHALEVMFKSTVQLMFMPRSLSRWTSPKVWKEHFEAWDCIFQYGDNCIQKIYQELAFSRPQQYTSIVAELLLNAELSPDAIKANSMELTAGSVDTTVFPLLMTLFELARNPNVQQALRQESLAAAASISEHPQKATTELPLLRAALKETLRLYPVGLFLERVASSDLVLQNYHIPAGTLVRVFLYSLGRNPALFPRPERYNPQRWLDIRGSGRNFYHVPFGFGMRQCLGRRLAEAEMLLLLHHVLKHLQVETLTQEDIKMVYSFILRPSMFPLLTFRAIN
Description: Inhibition of human CYP11B1 expressed in hamster V79MZ cells using [3H]-11-deoxycorticosterone as substrate after 1 hr by HPLC analysis

CYP19 (aromatase) = molecular target: T4, CYP19 (aromatase) (Homo sapiens, UniProt P11511); experiment: Inhibition of human recombinant CYP19 using [1beta3H]androstenedione as substrate at 500 nM; conditions: recombinant human CYP19, probe [1beta3H]androstenedione
T4 sequence (P11511 whole entry): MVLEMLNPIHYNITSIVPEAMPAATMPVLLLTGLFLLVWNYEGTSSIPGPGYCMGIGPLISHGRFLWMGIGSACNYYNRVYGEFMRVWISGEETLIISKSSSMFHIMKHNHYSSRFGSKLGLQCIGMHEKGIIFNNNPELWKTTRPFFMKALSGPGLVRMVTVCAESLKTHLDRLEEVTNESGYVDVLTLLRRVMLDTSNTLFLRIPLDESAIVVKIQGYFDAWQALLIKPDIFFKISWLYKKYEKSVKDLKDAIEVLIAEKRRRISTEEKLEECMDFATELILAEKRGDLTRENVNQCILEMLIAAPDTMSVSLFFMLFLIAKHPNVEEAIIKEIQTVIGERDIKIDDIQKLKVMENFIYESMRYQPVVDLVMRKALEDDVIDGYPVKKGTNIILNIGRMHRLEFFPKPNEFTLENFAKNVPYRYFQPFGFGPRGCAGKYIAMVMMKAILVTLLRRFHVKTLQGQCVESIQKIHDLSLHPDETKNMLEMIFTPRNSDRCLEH

[4] = AUC in Wistar rat at 1 mg/kg, iv by HPLC-MS/MS analysis; assay type: ADME, organism-based; design: dose 1 mg/kg, route intravenous; conditions: plasma
[5] = Terminal half life in Wistar rat at 1 mg/kg, iv by HPLC-MS/MS analysis; assay type: ADME, organism-based; design: dose 1 mg/kg, route intravenous; conditions: in vivo, read-out: beta t1/2 (converted)
[6] = Terminal half life in Wistar rat at 1 mg/kg, po by HPLC-MS/MS analysis; assay type: ADME, organism-based; design: dose 1 mg/kg, route oral; conditions: in vivo, read-out: beta t1/2 (converted)
[7] = AUC in Wistar rat at 1 mg/kg, po by HPLC-MS/MS analysis; assay type: ADME, organism-based; design: dose 1 mg/kg, route oral; conditions: plasma
[8] = Oral bioavailability in Wistar rat at 1 mg/kg by HPLC-MS/MS analysis; assay type: ADME, organism-based; conditions: in vivo
[9] = Cmax in Wistar rat at 1 mg/kg, po after 0.5 hrs by HPLC-MS/MS analysis; assay type: ADME, organism-based; design: dose 1 mg/kg, route oral; conditions: in vivo

| inhibition at 2 µM (CYP17) | IC50 [1] | inhibition [2] | IC50 [3] | inhibition at 0.5 µM (CYP19 (aromatase)) | AUC [4] | half-life [5] | half-life [6] | AUC [7] | bioavailability [8] | Cmax [9] | SMILES | Ratio IC50 (V79MZ) |
| --- | --- | --- | --- | --- | --- | --- | --- | --- | --- | --- | --- | --- |
| < 5% | 25 nM | 81% | 6190 nM | < 5% |  |  |  |  |  |  | [O-][S+](c1ccc(C(F)(F)F)cc1)c1c(O)c(-c2cccnc2)cc2ccccc12 (stereo not given) | 248 |
| < 5% | 27 nM | 87% | 7310 nM | < 5% |  |  |  |  |  |  | COc1cccc([S+]([O-])c2c(O)c(-c3cccnc3)cc3ccccc23)c1 (stereo not given) | 271 |
| < 5% | 43 nM | 88% | 6670 nM | < 5% |  |  |  |  |  |  | [O-][S+](c1cccc(C(F)(F)F)c1)c1c(O)c(-c2cccnc2)cc2ccccc12 (stereo not given) | 155 |
|  |  | 47% |  |  |  |  |  |  |  |  | N#Cc1ccc([S+]([O-])c2c(O)c(-c3cccnc3)cc3ccccc23)cc1 (stereo not given) |  |
| < 5% | 47 nM | 87% | 4720 nM | < 5% |  |  |  |  |  |  | [O-][S+](c1cc(Cl)cc(Cl)c1)c1c(O)c(-c2cccnc2)cc2ccccc12 (stereo not given) | 100 |
| < 5% | 33 nM | 78% | 9350 nM | < 5% |  |  |  |  |  |  | [O-][S+](c1cc(C(F)(F)F)cc(C(F)(F)F)c1)c1c(O)c(-c2cccnc2)cc2ccccc12 (stereo not given) | 283 |
| < 5% | 46 nM | 84% | 8550 nM | < 5% |  |  |  |  |  |  | N#Cc1cccc([S+]([O-])c2c(O)c(-c3cccnc3)cc3ccccc23)c1 (stereo not given) | 186 |
| < 5% | 32 nM | 88% | 7430 nM | < 5% |  |  |  |  |  |  | [O-][S+](c1ccc(OC(F)(F)F)cc1)c1c(O)c(-c2cccnc2)cc2ccccc12 (stereo not given) | 232 |
|  |  | 33% |  |  |  |  |  |  |  |  | [O-][S+](c1ccccc1)c1cc(-c2cccnc2)cc2ccccc12 (stereo not given) |  |
| < 5% | 39 nM | 85% | 6550 nM | < 5% |  |  |  |  |  |  | [O-][S+](c1cccc(F)c1)c1c(O)c(-c2cccnc2)cc2ccccc12 (stereo not given) | 168 |
|  |  | 22% |  |  |  |  |  |  |  |  | Oc1c(-c2cccnc2)cc2ccccc2c1Sc1ccccc1 |  |
| < 5% | 56 nM | 77% | 4710 nM | < 5% |  |  |  |  |  |  | [O-][S+](c1ccccc1OC(F)(F)F)c1c(O)c(-c2cccnc2)cc2ccccc12 (stereo not given) | 84 |
|  |  | 22% |  |  |  |  |  |  |  |  | COc1ccc(Sc2c(O)c(-c3cccnc3)cc3ccccc23)cc1 |  |
| < 5% | 22 nM | 90% | 4490 nM | < 5% |  |  |  |  |  |  | [O-][S+](c1ccccc1Cl)c1c(O)c(-c2cccnc2)cc2ccccc12 (stereo not given) | 204 |
| < 5% | 22 nM | 84% | 8950 nM | < 5% |  |  |  |  |  |  | [O-][S+](c1ccc(Cl)cc1)c1c(O)c(-c2cccnc2)cc2ccccc12 (stereo not given) | 407 |
|  |  | 16% |  |  |  |  |  |  |  |  | O=S(=O)(c1ccccc1)c1cc2ccccc2cc1-c1cccnc1 |  |
| < 5% | 48 nM | 80% | 4200 nM | < 5% |  |  |  |  |  |  | COc1ccc([S+]([O-])c2c(O)c(-c3cccnc3)cc3ccccc23)cc1 (stereo not given) | 87 |
| < 5% | 53 nM | 86% | 5080 nM | < 5% |  |  |  |  |  |  | [O-][S+](c1ccccc1C(F)(F)F)c1c(O)c(-c2cccnc2)cc2ccccc12 (stereo not given) | 96 |
| < 5% | 60 nM | 90% | 4800 nM | < 5% |  |  |  |  |  |  | [O-][S+](c1cccc(Cl)c1)c1c(O)c(-c2cccnc2)cc2ccccc12 (stereo not given) | 80 |
| < 5% | 64 nM | 86% | 1100 nM | < 5% |  |  |  |  |  |  | COc1ccccc1[S+]([O-])c1c(O)c(-c2cccnc2)cc2ccccc12 (stereo not given) | 17 |
| < 5% | 33 nM | 85% | 6710 nM | < 5% |  |  |  |  |  |  | [O-][S+](c1ccccc1)c1c(O)c(-c2cccnc2)cc2ccccc12 (stereo not given) | 203 |
| < 5% | 53 nM | 91% | 6530 nM | < 5% |  |  |  |  |  |  | [O-][S+](c1ccc(F)c(Cl)c1)c1c(O)c(-c2cccnc2)cc2ccccc12 (stereo not given) | 123 |
|  |  | 20% |  |  |  |  |  |  |  |  | COc1cccc(Sc2c(O)c(-c3cccnc3)cc3ccccc23)c1 |  |
|  |  | 15% |  |  |  |  |  |  |  |  | c1ccc(Sc2cc(-c3cccnc3)cc3ccccc23)cc1 |  |
| < 5% | 33 nM | 84% | 5550 nM | < 5% |  |  |  |  |  |  | [O-][S+](c1ccc(F)cc1)c1c(O)c(-c2cccnc2)cc2ccccc12 (stereo not given) | 168 |
| < 5% | 192 nM | 79% | 6160 nM | < 5% |  |  |  |  |  |  | [O-][S+](c1cccs1)c1c(O)c(-c2cccnc2)cc2ccccc12 (stereo not given) | 32 |
| < 5% | 33 nM | 90% | 8330 nM | < 5% |  |  |  |  |  |  | [O-][S+](c1ccc(Cl)c(Cl)c1)c1c(O)c(-c2cccnc2)cc2ccccc12 (stereo not given) | 253 |
|  |  | 18% |  |  |  |  |  |  |  |  | COc1ccccc1Sc1c(O)c(-c2cccnc2)cc2ccccc12 |  |
| < 5% | 14 nM | 83% | 5810 nM | < 5% | 1780 ng·h/mL | 4 h | 7 h | 335 ng·h/mL | 19% | 40.4 ng/mL | [O-][S+](c1cccc(OC(F)(F)F)c1)c1c(O)c(-c2cccnc2)cc2ccccc12 (stereo not given) | 415 |
